Here are results for one compound from PMC12406664, “New derivatives of 6-nitrocoumarin-3-thiosemicarbazone exhibit improved antiparasitic activity in the placenta against Trypanosoma cruzi and Toxoplasma gondii” (Antimicrobial Agents and Chemotherapy, 2025).

Structures are written as SMILES. Bounds are passed on as bounds.

Data set [1] has as its system T. cruzi (Dm28 strain) in BeWo cells. The data set is described as follows: Infection of BeWo cells by T. cruzi, infected cells counted by fluorescence microscopy. The data set is classed as cell-based, Trypanosoma cruzi. The conditions noted are these: compound at IC50, untreated control 24 ± 3. Here is the method:
The effect of the compounds on the infection of BeWo trophoblast cells by T. gondii and T. cruzi was assessed. The DNA of T. gondii and T. cruzi was quantified in infected BeWo cells treated for 24 hours under two conditions: co-incubation and post-infection treatment. […] Fluorescence microscopy was employed to quantify the number of infected cells. The resulting images were analyzed using ImageJ software to count both infected and uninfected cells.
For the microscopic analysis of BeWo cells infected with T. cruzi, the cells were washed with PBS to remove the supernatant, fixed with 90% cold methanol, rewashed with PBS, and incubated for 5 minutes with 1 µg/mL—1 4,6-diamidino-2-phenylindole (DAPI) (Molecular Probes). To analyze BeWo cells infected with T. gondii, cells were fixed with 90% cold methanol, washed with PBS containing 0.05% Tween, and blocked using 3% BSA for 1 hour at 37°C. Then, they were incubated with the primary monoclonal antibody Toxoplasma gondii (TP3): sc-52255 at a dilution of 1:500 with 1% BSA overnight at 4°C. […] T. cruzi amastigotes were identified by their morphology, including nuclear size and the presence of a kinetoplast, and were analyzed and quantified using ImageJ. At least 500 cells per condition were analyzed, and infected and non-infected cells were counted for every 100 cells ([35], [70]). […]

Data set [2] has as its system T. cruzi trypomastigotes, Dm28 strain. To be noted: read-out: IC50 T. cruzi; cited from earlier work.
For data set [3] the following is noted: vs. Ag/AgCl; cited from earlier work.
Data set [4] relates to HPE exposed to T. cruzi trypomastigotes. Put plainly: Histopathology of HPE infected with T. cruzi. The data set is classed as cell-based, human. To be noted: co-incubation, IC50 concentration.
For data set [5], the system named is T. cruzi trypomastigotes, Dm28 strain. Put plainly: Resazurin viability assay on free T. cruzi trypomastigotes. The conditions noted are these: parasite T. cruzi. The procedure:
The reduction of resazurin sodium salt was used to determine the trypanocidal and toxoplasmicidal activity of the 6-nitrocoumarin-thiosemicarbazone hybrids 1–8. For this, treatment with the compounds was carried out for 24 h at a concentration of 100 µM.
NFX was used as a positive control for T. cruzi, and PMN was used for T. gondii. Untreated parasites served as a negative control. […] Subsequently, parasites with their respective conditions were transferred to a 96-well white fluorescence reading plate, adding resazurin at a final concentration of […] with 0.8 mM phenazine. The plate was incubated for 3 hours at 37°C in a humidified atmosphere with 5% CO2, and fluorescence measurements were taken using a microplate reader (Thermo Scientific Varioskan Flash) at excitation wavelengths of 560 nm and emission wavelengths of 590 nm.

Data set [6] is described as follows: Cytotoxicity on cells (resazurin), EA.hy926. The data set is classed as cell-based. To be noted: human, EA.hy926 endothelial cells. The source says: (§1) Triton X-100 was used as a positive control, and untreated cells served as a negative control. In addition, the maximum concentration of DMSO was used as a control for the method. […] The obtained values were expressed as IC50([88]).

In data set [7] the test system is T. cruzi (Dm28 strain) in HPE. Put plainly: T. cruzi DNA load in infected human placental explants (HPE) by real-time qPCR. The format is cell-based, Trypanosoma cruzi. The conditions noted are these: IC50 concentration. From the text:
Cells or HPE were exposed to parasites. […] The following treatment conditions were used in both infection models.
A general note: Real-time PCR tracks product formation cycle by cycle.

Data set [8] in a line: Cytotoxicity on cells (resazurin), BeWo. The format is cell-based. The conditions noted are these: human, BeWo trophoblast cells.
Description: as §1
Background: Alamar Blue is a resazurin reagent that responds to reducing activity.

Data set [9] concerns human placental explants (HPE). The data set is described as follows: Histopathology of uninfected HPE exposed to the compounds alone. The conditions noted are these: explants incubated only with the compound, 24 h, IC50 concentration. The procedure: The HPE was fixed in 10% formaldehyde in 0.1 M phosphate buffer (pH 7.3) for 24 h, dehydrated in alcohol, clarified in xylene, embedded in paraffin, and sectioned at 3 µm. Paraffin histological sections were stained with hematoxylin-eosin for routine histological analysis, Picro Sirius red, and trichromic Masson for collagen histochemistry. Sections for the histological analysis were observed under an optical microscope (Leica DM500) and images were captured with a Leica ICC50 W camera ([7], [91]).

As for `CC1CS(=O)(=O)CCN1/N=C/c1ccc([N+](=O)[O-])o1` (stereo not shown) [NFX, nifurtimox, reference compound], the “Infected cells (%)” value in data set [1] (co-incubation 24 h) is 2 ± 1%; in [1] (post-infection treatment 24 h), 23 ± 4%. In addition, in [2], the IC50 was 10 ± 0.4 µM. The “E(pIIa)” value in data set [3] is given as −0.70 V. For the same compound, the “E(pIIc)” value in [3] is recorded as −0.75 V. For the same compound, in data set [4], the “tissue damage in infected HPE (histopathology)” value is “caused tissue damage”. Further, the “SI = BeWo CC50/parasite IC50” value in [5] was above 30. Besides, in data set [5], the “SI = EA.hy926 CC50/parasite IC50” value turned out to be 34.9. The CC50 at 24 h in data set [6] is 348.5 ± 1.2 µM; in data set [8], above 300 µM. Also, the “effect on parasite DNA load” value in [7] (co-incubation) is “managed to reduce the parasitic load”; in data set [7] (post-infection treatment) it was “no statistically significant activity”. The “tissue damage caused by the compound itself in HPE” value in data set [9] is recorded as “caused tissue damage”.

By IC50 is commonly meant the concentration at which inhibition is half-maximal. The term CC50 denotes the concentration giving 50% cytotoxicity. Low values mean harm at low concentration, high ones better tolerance by the cells.
